Data on 19 molecules can be found in patent US20240067662A1, “KRAS INHIBITORS” (Bristol-Myers Squibb Company, priority 2022, published 2024).

In this experiment the target is GMPPNP-loaded KRAS G12C (Homo sapiens, UniProt P01116, G12C). The experiment can be described thus: KRAS G12C RAF Disruption Assay (HTRF). As to conditions: recombinant GMPPNP-loaded KRAS G12C (5 nM), 20 min with compound; GST-RAF1 RBD (9 nM); HTRF signal; read-out: KRASG12C RAF Disruption Assay (IC50). The format is biochemical. In outline: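 GMPPNP-loaded KRAS G12C (5 nM) was preincubated with compound for 20 min at room temperature in Tris pH 7.5 buffer with NaCl, MgCl2, DTT and BSA. GST-RAF1 RBD (9 nM) was added for 20 min, then SA-Tb (0.25 nM) for 3 h. IC50 was fitted from the HTRF 520/495 ratio.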
On the technique in general: Time-resolved FRET reads energy transfer from a long-lived donor to a nearby acceptor.

Usually IC50 stands for the concentration at which inhibition is half-maximal. Take `CN1CCC[C@H]1COc1nc(N2CCN(C(=O)/C(F)=C/c3nccs3)CC2)c2cnc(-c3cccc4cccc(Cl)c34)c(F)c2n1` [Compound 22, (S,Z)-1-(4-(7-(8-chloronaphthalen-1-yl)-8-fluoro-2-((1-methylpyrrolidin-2-yl)methoxy)pyrido[4,3-d]pyrimidin-4-yl)piperazin-1-yl)-2-fluoro-3-(thiazol-2-yl)prop-2-en-1-one]: the IC50 is 1900 nM.

For `C#Cc1cccc2cccc(-c3ncc4c(N5CCC6(CCN6C(=O)/C(F)=C/c6ccccn6)C5)nc(OC[C@@]56CCCN5C[C@H](F)C6)nc4c3F)c12` (single isomer, unassigned) [Compound 102], the IC50 was 87 nM.

On to `C#Cc1c(F)ccc2cc(O)cc(-c3ncc4c(N5CCN(C(=O)/C(F)=C/c6ccccn6)CC5)nc(OC[C@@]56CCCN5C[C@H](F)C6)nc4c3F)c12` [Example 27, (Z)-1-(4-(7-(8-ethynyl-7-fluoro-3-hydroxynaphthalen-1-yl)-8-fluoro-2-(((2R, 7aS)-2-fluorotetrahydro-1H-pyrrolizin-7a(5H)-yl)methoxy)pyrido[4,3-d]pyrimidin-4-yl)piperazin-1-yl)-2-fluoro-3-(pyridin-2-yl)prop-2-en-1-one], for which the IC50 amounted to 3 nM.

For `C#Cc1c(F)ccc2cc(O)cc(-c3ncc4c(N5C[C@@]6(NC(=O)/C(F)=C/c7ccccn7)CC[C@@H]5C6)nc(OC[C@@]56CCCN5C[C@H](F)C6)nc4c3F)c12` [Compound 13, (Z)—N-((1R, 4R)-2-(7-(8-ethynyl-7-fluoro-3-hydroxynaphthalen-1-yl)-8-fluoro-2-(((2R, 7aS)-2-fluorotetrahydro-1H-pyrrolizin-7a(5H)-yl)methoxy)pyrido[4,3-d]pyrimidin-4-yl)-2-azabicyclo[2.2.1]heptan-4-yl)-2-fluoro-3-(pyridin-2-yl)acrylamide], the concentration for half-maximal inhibition (IC50) is 38 nM.

Consider `N#CC[C@H]1CN(c2nc(OC[C@@]34CCCN3C[C@H](F)C4)nc3c(F)c(-c4cc(Cl)ccc4C(F)(F)F)ncc23)CCN1C(=O)/C(F)=C/c1nccs1` [Example 46, 2-((S)-1-((Z)-2-fluoro-3-(thiazol-2-yl)acryloyl)-4-(8-fluoro-7-(5-chloro-2-(trifluoromethyl)phenyl)-2-(((2R, 7aS)-2-fluorotetrahydro-1H-pyrrolizin-7a(5H)-yl)methoxy)pyrido[4,3-d]pyrimidin-4-yl)piperazin-2-yl)acetonitrile], for which the IC50 is 390 nM.

As for `C#Cc1c(F)ccc2cc(O)cc(-c3ncc4c(N5CCN(C(=O)/C(F)=C/c6ccccn6)C[C@@H]5C)nc(OC[C@@]56CCCN5C[C@H](F)C6)nc4c3F)c12` [Example 65, (Z)-1-((S)-4-(7-(8-ethynyl-7-fluoro-3-hydroxynaphthalen-1-yl)-8-fluoro-2-(((2R, 7aS)-2-fluorotetrahydro-1H-pyrrolizin-7a(5H)-yl)methoxy)pyrido[4,3-d]pyrimidin-4-yl)-3-methylpiperazin-1-yl)-2-fluoro-3-(pyridin-2-yl)prop-2-en-1-one], the IC50 was determined as 4.5 nM.

For `C#Cc1cccc2cccc(-c3ncc4c(N5CC6(CCN(C(=O)/C(F)=C/c7ncccn7)CC6)C5)nc(OC[C@@]56CCCN5C[C@H](F)C6)nc4c3F)c12` [Compound 92, (Z)-1-(2-(7-(8-ethynylnaphthalen-1-yl)-8-fluoro-2-(((2R, 7aS)-2-fluorotetrahydro-1H-pyrrolizin-7a(5H)-yl)methoxy)pyrido[4,3-d]pyrimidin-4-yl)-2,7-diazaspiro[3.5]nonan-7-yl)-2-fluoro-3-(pyrimidin-2-yl)prop-2-en-1-one], the half-inhibitory concentration (IC50) was 24000 nM.

Take `C#Cc1c(F)ccc2cc(O)cc(-c3ncc4c(N5CCN(C(=O)/C(F)=C/c6nccs6)CC5)nc(OC[C@]56CCC[C@H]5N(C)CCC6)nc4c3F)c12` [Example 58, (Z)-1-(4-(7-(8-ethynyl-7-fluoro-3-hydroxynaphthalen-1-yl)-8-fluoro-2-(((4aS, 7aR)-1-methyloctahydro-4aH-cyclopenta[b]pyridin-4a-yl)methoxy)pyrido[4,3-d]pyrimidin-4-yl)piperazin-1-yl)-2-fluoro-3-(thiazol-2-yl)prop-2-en-1-one]: the IC50 was found to be 2 nM.

In the case of `C#Cc1cccc2c(F)ccc(-c3ncc4c(N5CCN(C(=O)/C(F)=C/c6ccccn6)CC5)nc(OC[C@@]56CCCN5C[C@H](F)C6)nc4c3F)c12` [Compound 87, (Z)-1-(4-(7-(8-ethynyl-4-fluoronaphthalen-1-yl)-8-fluoro-2-(((2R, 7aS)-2-fluorotetrahydro-1H-pyrrolizin-7a(5H)-yl)methoxy)pyrido[4,3-d]pyrimidin-4-yl)piperazin-1-yl)-2-fluoro-3-(pyridin-2-yl)prop-2-en-1-one], the half-inhibitory concentration (IC50) is 1600 nM.

In the case of `CN1CCC[C@H]1COc1nc(N2CCN(C(=O)/C(F)=C/c3nccs3)[C@@H](CC#N)C2)c2cnc(-c3cccc4cccc(Cl)c34)c(F)c2n1` [Compound 21A, 2-((S)-4-(7-(8-chloronaphthalen-1-yl)-8-fluoro-2-(((S)-1-methylpyrrolidin-2-yl)methoxy)pyrido[4,3-d]pyrimidin-4-yl)-1-((Z)-2-fluoro-3-(thiazol-2-yl)acryloyl)piperazin-2-yl)acetonitrile], the IC50 amounted to 67 nM.

Consider `N#Cc1cccc2[nH]cc(-c3ncc4c(N5CCN(C(=O)/C(F)=C/c6nccs6)CC5)nc(OC[C@@]56CCCN5C[C@H](F)C6)nc4c3F)c12` [Compound 134, 3-(8-fluoro-4-(4-((Z)-2-fluoro-3-(thiazol-2-yl)acryloyl)piperazin-1-yl)-2-(((2R, 7aS)-2-fluorotetrahydro-1H-pyrrolizin-7a(5H)-yl)methoxy)pyrido[4,3-d]pyrimidin-7-yl)-1H-indole-4-carbonitrile], for which the IC50 amounted to 970 nM.

Take `C#Cc1cccc2cccc(-c3ncc4c(N(C)[C@@H]5CCN(C(=O)/C(F)=C/c6ccccn6)C5)nc(OC[C@@]56CCCN5C[C@H](F)C6)nc4c3F)c12` [Compound 115, (Z)-1-((R)-3-((7-(8-ethynylnaphthalen-1-yl)-8-fluoro-2-(((2R, 7aS)-2-fluorotetrahydro-1H-pyrrolizin-7a(5H)-yl)methoxy)pyrido[4,3-d]pyrimidin-4-yl)(methyl)amino)pyrrolidin-1-yl)-2-fluoro-3-(pyridin-2-yl)prop-2-en-1-one]: the IC50 was found to be 14 nM.

`N#CC[C@H]1CN(c2nc(OC[C@@]34CCCN3C[C@H](F)C4)nc3c(F)c(-c4ccccc4C4CCC4)ncc23)CCN1C(=O)/C(F)=C/c1ccccn1` [Compound 81, 2-((2S)-4-(7-(2-cyclobutylphenyl)-8-fluoro-2-(((2R, 7aS)-2-fluorotetrahydro-1H-pyrrolizin-7a(5H)-yl)methoxy)pyrido[4,3-d]pyrimidin-4-yl)-1-((Z)-2-fluoro-3-(pyridin-2-yl)acryloyl)piperazin-2-yl)acetonitrile]: the IC50 was found to be 57 nM.

“2-((S)-4-(8-fluoro-2-(((S)-1-methylpyrrolidin-2-yl)methoxy)-7-(naphthalen-1-yl)pyrido[4,3-d]pyrimidin-4-yl)-1-((Z)-2-fluoro-3-(pyridin-2-yl)acryloyl)piperazin-2-yl)acetonitrile [Compound 21B]”: the IC50 is 330 nM.

Regarding `N#CC[C@H]1CN(c2nc(OC[C@@]34CCCN3C[C@H](F)C4)nc3c(F)c(-c4cc(F)ccc4C(F)F)ncc23)CCN1C(=O)/C(F)=C/c1ccccn1` [Example 42, 2-((S)-4-(7-(2-(difluoromethyl)-5-fluorophenyl)-8-fluoro-2-(((2R, 7aS)-2-fluorotetrahydro-1H-pyrrolizin-7a(5H)-yl)methoxy)pyrido[4,3-d]pyrimidin-4-yl)-1-((Z)-2-fluoro-3-(pyridin-2-yl)acryloyl)piperazin-2-yl)acetonitrile], the IC50 stood at 760 nM.

`C#Cc1cccc2cccc(-c3ncc4c(N(C)[C@H]5CN(C(=O)/C(F)=C/c6nccs6)C[C@H]5F)nc(OC[C@@]56CCCN5C[C@H](F)C6)nc4c3F)c12` [Compound 129, (Z)-1-((3S,4R)-3-((7-(8-ethynylnaphthalen-1-yl)-8-fluoro-2-(((2R, 7aS)-2-fluorotetrahydro-1H-pyrrolizin-7a(5H)-yl)methoxy)pyrido[4,3-d]pyrimidin-4-yl)(methyl)amino)-4-fluoropyrrolidin-1-yl)-2-fluoro-3-(thiazol-2-yl)prop-2-en-1-one]: the IC50 turned out to be 200 nM.

Take `N#CC[C@H]1CN(c2nc(OC[C@@]34CCCN3C[C@H](F)C4)nc3c(F)c(-c4cc(F)ccc4C(F)(F)F)ncc23)CCN1C(=O)/C(F)=C/c1nccs1` [Example 45, 2-((S)-1-((Z)-2-fluoro-3-(thiazol-2-yl)acryloyl)-4-(8-fluoro-7-(5-fluoro-2-(trifluoromethyl)phenyl)-2-(((2R, 7aS)-2-fluorotetrahydro-1H-pyrrolizin-7a(5H)-yl)methoxy)pyrido[4,3-d]pyrimidin-4-yl)piperazin-2-yl)acetonitrile]: the concentration for half-maximal inhibition (IC50) was determined as 460 nM.

As to `N#CC[C@H]1CN(c2nc(OC[C@@]34CCCN3C[C@H](F)C4)nc3c(F)c(-c4ccccc4C4CC4)ncc23)CCN1C(=O)/C(F)=C/c1nccs1` [Compound 80, 2-((2S)-4-(7-(2-cyclopropylphenyl)-8-fluoro-2-(((2R, 7aS)-2-fluorotetrahydro-1H-pyrrolizin-7a(5H)-yl)methoxy)pyrido[4,3-d]pyrimidin-4-yl)-1-((Z)-2-fluoro-3-(thiazol-2-yl)acryloyl)piperazin-2-yl)acetonitrile], the IC50 was found to be 30 nM.

In the case of `C#Cc1ccc(F)c2cccc(-c3ncc4c(N5CCN(C(=O)/C(F)=C/c6ncccn6)CC5)nc(OC[C@@]56CCCN5C[C@H](F)C6)nc4c3F)c12` [Compound 97, (Z)-1-(4-(7-(8-ethynyl-5-fluoronaphthalen-1-yl)-8-fluoro-2-(((2R, 7aS)-2-fluorotetrahydro-1H-pyrrolizin-7a(5H)-yl)methoxy)pyrido[4,3-d]pyrimidin-4-yl)piperazin-1-yl)-2-fluoro-3-(pyrimidin-2-yl)prop-2-en-1-one], the IC50 turned out to be 550 nM.
